In publication PMC6348771 (Redox Biology, 2018):

Molecular target: T1, glutathione reductase (GR) (Saccharomyces cerevisiae, UniProt P41921)
T1 sequence (P41921 1-483): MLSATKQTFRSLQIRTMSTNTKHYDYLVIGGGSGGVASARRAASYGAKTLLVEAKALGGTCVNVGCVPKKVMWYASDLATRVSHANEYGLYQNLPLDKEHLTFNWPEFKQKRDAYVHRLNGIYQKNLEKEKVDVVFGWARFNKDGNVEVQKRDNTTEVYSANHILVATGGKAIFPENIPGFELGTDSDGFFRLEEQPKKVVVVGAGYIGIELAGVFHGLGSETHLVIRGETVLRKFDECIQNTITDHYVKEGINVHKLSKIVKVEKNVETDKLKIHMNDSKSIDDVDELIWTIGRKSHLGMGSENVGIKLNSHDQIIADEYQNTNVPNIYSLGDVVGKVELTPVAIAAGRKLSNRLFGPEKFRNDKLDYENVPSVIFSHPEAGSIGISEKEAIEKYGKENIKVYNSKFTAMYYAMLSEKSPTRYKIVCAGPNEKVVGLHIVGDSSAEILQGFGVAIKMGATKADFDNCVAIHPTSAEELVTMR
Test: enzyme activity assay versus GSH concentration
Format: biochemical

IC50: ~10 mM
Compound: N[C@@H](CCC(=O)N[C@@H](CS)C(=O)NCC(=O)O)C(=O)O [GSH, Glutathione]
